Results: patent US9096524B2, “Anthelmintic agents and their use” (Intervet International B.V., priority 2009, dated 2015)

test system: A. galli (intestinal roundworm of chicken) larval stage 3; O. dentatum (nodular worm of swine) larval stages 3 and 4; test: Activity against Ascaridia galli and Oesophagostomum dentatum larvae in vitro (minimum effective concentration); type: cell-based; details: in vitro; one or more of A. galli L3, O. dentatum L3, L4; threshold 1 μM; read-out: MEC (minimum effective concentration) against one or more of the tested nematodes

SMILES	minimal effective concentration [µM]
O=C(CC(=O)N1CCN(c2cccc(OC(F)(F)F)c2)CC1)N1CCC(Nc2ccc([N+](=O)[O-])c(C(F)(F)F)c2)CC1 [Example 210]	< 1
O=C(CCN1CCC(c2cccc(C(F)(F)F)c2)CC1)N1CCC(Nc2ccc([N+](=O)[O-])c(C(F)(F)F)c2)CC1 [Example 212]	< 1
O=C(CCC1CCN(c2cccc(C(F)(F)F)c2)CC1)N1CCC(Nc2ccc([N+](=O)[O-])c(C(F)(F)F)c2)CC1 [Example 215]	< 1
O=C(CCC1CCN(c2ccccc2)CC1)N1CCC(Nc2ccc([N+](=O)[O-])c(C(F)(F)F)c2)CC1 [Example 216]	< 1
CC(C)(C)c1ccc(N2CCN(CCCC(=O)N3CCC(Oc4ccc([N+](=O)[O-])c(C(F)(F)F)c4)CC3)CC2)cc1 [Example 258]	< 1
O=C(CCCN1CCN(c2ccc(Cl)cc2)CC1)N1CCC(Oc2ccc([N+](=O)[O-])c(C(F)(F)F)c2)CC1 [Example 259]	< 1
O=C(CCCN1CCN(c2ccc(F)cc2)CC1)N1CCC(Oc2ccc([N+](=O)[O-])c(C(F)(F)F)c2)CC1 [Example 261]	< 1
O=C(CCN1CCN(c2ccc(C(F)(F)F)cc2)CC1)N1CC[C@H](Nc2ccc([N+](=O)[O-])c(C(F)(F)F)c2)C1 [Example 285]	< 1
COc1ccc(N2CCN(CCC(=O)N3CC[C@H](Nc4ccc([N+](=O)[O-])c(C(F)(F)F)c4)C3)CC2)cc1 [Example 289]	< 1
CCCCC(=O)N1CCC(OCC(=O)N2CCC(Nc3ccc([N+](=O)[O-])c(C(F)(F)F)c3)CC2)CC1 [Example 291]	< 1
CC(C)(C)c1ccc(N2CCN(CCC(=O)N3CCC(Nc4ccc(C(F)(F)F)cn4)CC3)CC2)cc1 [Example 329]	< 1
CCOC(=O)c1ccc(NC2CCN(C(=O)CCCN3CCN(c4ccc(Cl)cc4)CC3)CC2)cc1 [Example 338]	< 1
CC(C)(C)c1ccc(N2CCN(CCC(=O)N3CCC(Nc4ccc(S(C)(=O)=O)c(C(F)(F)F)c4)CC3)CC2)cc1 [Example 340]	< 1
CS(=O)(=O)c1ccc(NC2CCN(C(=O)CCN3CCN(c4ccc(Cl)cc4)CC3)CC2)cc1C(F)(F)F [Example 341]	< 1
CS(=O)(=O)c1ccc(NC2CCN(C(=O)CCCN3CCN(c4ccc(Cl)cc4)CC3)CC2)cc1C(F)(F)F [Example 343]	< 1
CC(C)(C)c1ccc(N2CCN(CCC(=O)N3CCC(Nc4cccc(C#N)c4)CC3)CC2)cc1 [Example 351]	< 1
O=C(CCCN1CCN(c2ccc(Cl)cc2)CC1)N1CCC(Nc2ccc(Cl)c(SC(F)(F)F)c2)CC1 [Example 359]	< 1
COc1cc(NC2CCN(C(=O)CCN3CCC(c4ccc(Oc5ccccc5)cc4)CC3)CC2)ccc1[N+](=O)[O-] [Example 376]	< 1
COc1cc(NC2CCN(C(=O)CCN3CCC(c4ccc(C(C)(C)C)cc4)CC3)CC2)ccc1[N+](=O)[O-] [Example 380]	< 1
CCOc1cc(NC2CCN(C(=O)CCN3CCC(c4ccc(C(C)(C)C)cc4)CC3)CC2)ccc1[N+](=O)[O-] [Example 400]	< 1
CCOc1cc(NC2CCN(C(=O)CCN3CCN(c4ccc(C(F)(F)F)cc4)CC3)CC2)ccc1[N+](=O)[O-] [Example 402]	< 1

same assay, conditions: in vitro; one or more of A. galli L3, O. dentatum L3, L4; threshold 7 μM; read-out: MEC (minimum effective concentration) against one or more of the tested nematodes

SMILES	minimal effective concentration [µM]
CN(C)S(=O)(=O)c1ccc(NC2CCN(C(=O)CCCN3CCN(c4ccc(Cl)cc4)CC3)CC2)cc1C(F)(F)F [Example 349]	< 7
O=C(CCN1CCN(c2ccc(F)cc2F)CC1)N1CCC(Nc2ccc([N+](=O)[O-])c(C(F)(F)F)c2)CC1 [Example 370]	< 7
CCCc1ccc(C2CCN(CCC(=O)N3CCC(Nc4ccc([N+](=O)[O-])c(OC)c4)CC3)CC2)cc1 [Example 379]	< 7
COc1cc(NC2CCN(C(=O)CCN3CCC(c4ccc(C(C)(C)C)cc4)CC3)CC2)ccc1[N+](=O)[O-] [Example 380]	< 7
COc1cc(NC2CCN(C(=O)CCN3CCN(c4ccc(C(F)(F)F)cc4)CC3)CC2)ccc1[N+](=O)[O-] [Example 382]	< 7
COc1cc(NC2CCN(C(=O)CCN3CCN(c4ccc(Cl)c(C(F)(F)F)c4)CC3)CC2)ccc1[N+](=O)[O-] [Example 384]	< 7
CCCc1ccc(C2CCN(CCC(=O)N3CCC(Nc4ccc([N+](=O)[O-])c(OCC)c4)CC3)CC2)cc1 [Example 399]	< 7
CCOc1cc(NC2CCN(C(=O)CCN3CCC(c4ccc(C(C)(C)C)cc4)CC3)CC2)ccc1[N+](=O)[O-] [Example 400]	< 7
CCOc1cc(NC2CCN(C(=O)CCN3CCN(c4ccc(C(F)(F)F)cc4)CC3)CC2)ccc1[N+](=O)[O-] [Example 402]	< 7
CCOc1cc(NC2CCN(C(=O)CCN3CCN(c4ccc(Cl)cc4)CC3)CC2)ccc1[N+](=O)[O-] [Example 405]	< 7
CCOc1cc(NC2CCN(C(=O)CCN3CCN(c4ccc(OCc5ccccc5)cc4)CC3)CC2)ccc1[N+](=O)[O-] [Example 407]	< 7
CCOc1cc(NC2CCN(C(=O)CCN3CCN(c4ccc(OC)cc4)CC3)CC2)ccc1[N+](=O)[O-] [Example 408]	< 7
CCOc1cc(NC2CCN(C(=O)CCN3CCN(c4ccc(Cl)cc4F)CC3)CC2)ccc1[N+](=O)[O-] [Example 410]	< 7

same assay, conditions: in vitro; two or more of A. galli L3, O. dentatum L3, L4; threshold 1 μM; read-out: MEC (minimum effective concentration) against two or more of the tested nematodes

SMILES	minimal effective concentration [µM]
CC(C)(C)c1ccc(N2CCN(C(=O)CC(=O)N3CCC(Nc4ccc([N+](=O)[O-])c(C(F)(F)F)c4)CC3)CC2)cc1 [Example 203]	< 1
O=C(CCC1CCN(c2cccc(C(F)(F)F)c2)CC1)N1CCC(Nc2ccc([N+](=O)[O-])c(C(F)(F)F)c2)CC1 [Example 215]	< 1
O=C(CCC1CCN(c2ccccc2)CC1)N1CCC(Nc2ccc([N+](=O)[O-])c(C(F)(F)F)c2)CC1 [Example 216]	< 1
O=C(CCN1CCN(c2ccc(Cl)c(C(F)(F)F)c2)CC1)N1CCC(Oc2ccc([N+](=O)[O-])c(C(F)(F)F)c2)CC1 [Example 218]	< 1
CC(C)(C)c1ccc(N2CCN(CCC(=O)N3CCC(Oc4ccc([N+](=O)[O-])c(C(F)(F)F)c4)CC3)CC2)cc1 [Example 220]	< 1
O=C(CCN1CCN(c2cccc(OC(F)(F)F)c2)CC1)N1CCC(Oc2ccc([N+](=O)[O-])c(C(F)(F)F)c2)CC1 [Example 225]	< 1
O=C([C@@H]1CCC[C@H](C(=O)N2CCC(Nc3ccc([N+](=O)[O-])c(C(F)(F)F)c3)CC2)C1)N1CCN(c2ccccc2)CC1 [Example 227]	< 1
O=C(C1CCC[C@H](C(=O)N2CCN(c3ccccc3)CC2)C1)N1CCC(Oc2ccc([N+](=O)[O-])c(C(F)(F)F)c2)CC1 (stereo partly drawn) [Example 228]	< 1
O=C(CCN1CCN(C2CCCCC2)CC1)N1CCC(Nc2ccc([N+](=O)[O-])c(C(F)(F)F)c2)CC1 [Example 241]	< 1
Cc1ccc(N2CCN(CCS(=O)(=O)N3CCC(Nc4ccc([N+](=O)[O-])c(C(F)(F)F)c4)CC3)CC2)cc1 [Example 243]	< 1
O=[N+]([O-])c1ccc(NC2CCN(S(=O)(=O)CCN3CCN(c4ccc(C(F)(F)F)cc4)CC3)CC2)cc1C(F)(F)F [Example 245]	< 1
O=[N+]([O-])c1ccc(NC2CCN(S(=O)(=O)CCN3CCN(C4CCCCC4)CC3)CC2)cc1C(F)(F)F [Example 248]	< 1
COc1ccc(N2CCN(CCC(=O)N3CCC(Nc4ccc([N+](=O)[O-])c(C(F)(F)F)c4)CC3)CC2)cc1 [Example 254]	< 1
O=C(CCN1CCN(c2ccc(C(F)(F)F)cn2)CC1)N1CCC(Nc2ccc([N+](=O)[O-])c(C(F)(F)F)c2)CC1 [Example 255]	< 1
O=C(CCCN1CCN(c2ccc(C(F)(F)F)cc2)CC1)N1CCC(Nc2ccc(C(F)(F)F)cc2)CC1 [Example 269]	< 1
COc1ccc(NC2CCN(C(=O)CCCN3CCN(c4ccc(C(F)(F)F)cc4)CC3)CC2)cc1 [Example 270]	< 1
O=C(CCN1CCN(c2ccc(C(F)(F)F)cc2)CC1)N1CCC(Nc2cccc(C(F)(F)F)c2)CC1 [Example 276]	< 1
N#Cc1ccc(NC2CCN(C(=O)CCN3CCN(c4ccc(C(F)(F)F)cc4)CC3)CC2)cc1 [Example 283]	< 1
COc1ccc(N2CCN(CCC(=O)N3CC[C@H](Nc4ccc([N+](=O)[O-])c(C(F)(F)F)c4)C3)CC2)cc1 [Example 289]	< 1
CC(C)(C)c1ccc(N2CCN(CCC(=O)N3CCC(Nc4ccc(S(=O)(=O)c5ccc(F)cc5)cc4)CC3)CC2)cc1 [Example 294]	< 1
C[S+]([O-])c1ccc(NC2CCN(C(=O)CCN3CCN(c4ccc(C(C)(C)C)cc4)CC3)CC2)cc1C(F)(F)F (stereo not drawn) [Example 299]	< 1
CS(=O)(=O)c1ccc(NC2CCN(C(=O)CCN3CCN(c4ccc(Cl)cc4)CC3)CC2)cc1C(F)(F)F [Example 341]	< 1
CN(C)S(=O)(=O)c1ccc(NC2CCN(C(=O)CCN3CCN(c4ccc(Cl)cc4)CC3)CC2)cc1C(F)(F)F [Example 346]	< 1
COc1ccc(N2CCN(CCC(=O)N3CCC(Nc4ccc([N+](=O)[O-])c(C(F)(F)F)c4)CC3)CC2)cc1OC [Example 368]	< 1
COc1cc(NC2CCN(C(=O)CCN3CCN(c4ccc(C(F)(F)F)cc4)CC3)CC2)ccc1[N+](=O)[O-] [Example 382]	< 1
CCOc1cc(NC2CCN(C(=O)CCN3CCN(c4ccc(C(F)(F)F)cc4)CC3)CC2)ccc1[N+](=O)[O-] [Example 402]	< 1
O=C(CCN1CCN(c2ccc(Cl)cc2)CC1)N1CCC(Oc2ccc([N+](=O)[O-])c(C(F)(F)F)c2)CC1 [Example 421]	< 1
O=C(CCN1CCN(c2ccc(OCc3ccccc3)cc2)CC1)N1CCC(Oc2ccc([N+](=O)[O-])c(C(F)(F)F)c2)CC1 [Example 423]	< 1

same assay, conditions: read-out: MEC (minimum effective concentration) against two or more of the tested nematodes, in vitro; two or more of A. galli L3, O. dentatum L3, L4; threshold 1 μM

SMILES	minimal effective concentration [µM]
O=C(CCCN1CCN(c2ccc(C(F)(F)F)cc2)CC1)N1CCC(Nc2ccc(Cl)c(Cl)c2)CC1 [Example 272]	< 1
O=C(CCCN1CCN(c2ccc(C(F)(F)F)cc2)CC1)N1CCC(Nc2ccc(Cl)cc2)CC1 [Example 273]	< 1
O=C(CCN1CCN(c2ccc(C(F)(F)F)cc2)CC1)N1CCC(Nc2ccc(Cl)cc2)CC1 [Example 282]	< 1
CSc1ccc(NC2CCN(C(=O)CCCN3CCN(c4ccc(C(C)(C)C)cc4)CC3)CC2)cc1C(F)(F)F [Example 317]	< 1
